{"source": "patent US20200179308A1", "about": "“USE OF ISOHUMULONES AND DERIVATIVES THEREOF TO TREAT POLYCYSTIC OVARY SYNDROME” (KINDEX PHARMACEUTICALS, INC., priority 2017, published 2020)", "type_in_all_cases": "in vivo", "key": {"DIO female mice [1]": {"tested_on": "DIO female mice", "experiment": "Fasting serum insulin, leptin and IL-6 by Luminex assay", "conditions": "between VEH, KDT501 and PIO groups", "description": "(§1) To measure serum levels of LH, FSH, insulin, and leptin, serum samples were collected from mice via mandibular bleed. Mice were fasted overnight, and insulin or saline was injected IP according to the body weight of the mice (0.3 units/kg). Samples were obtained between 9:00 and 10:00 am on diestrus for baseline LH and FSH so as to avoid cycle dependent LH surges that occur in the late afternoon on the evening of proestrus. Rodent morning LH levels are not thought to vary in a cycle dependent manner (Helena et al. 2006). For fasting measurements of insulin, samples were also obtained between 9:00 and 10:00 am. Tissues were collected 10 minutes after insulin injection and snap-frozen in liquid nitrogen. Protein was obtained and measured as described previously (Brothers et al. 2010). To quantify the levels of phosphorylated AKT (pAKT), and AKT for different tissues of each individual animal after insulin or saline injection, Bio-Plex Phosphoprotein Detection Multiplex assays were used (Bio-Rad Laboratories, Hercules, Calif.). Protein ([…]) from each tissue was loaded into a 96-well microplate. Assays were conducted using the Luminex 200 system. Values were assessed as mean fluorescent intensity of phospho-specific signal. Serum was analyzed on a Luminex 20015 platform using the Milliplex Map mouse pituitary panel (LH/FSH) and a Milliplex mouse metabolic panel (insulin/leptin; Millipore, Billerica, Mass., USA). The assay detection limit for LH was 0.0019 ng/mL; for FSH, 0.0095 ng/mL; for insulin, 13.0 pg/mL; and for leptin, 4.2 pg/mL. Serum Testosterone was measured by radioimmunoassay at the University of Virginia Ligand Assay Core."}, "DIO female mice [2]": {"tested_on": "DIO female mice", "experiment": "Estrous cyclicity by vaginal cytology over 15 consecutive days", "conditions": "for percent of mice acyclic (did not complete even 1 complete estrous cycle): 15 day period beginning 10 days after treatment", "description": "Diet-induced obesity has been reported to impair estrous cyclicity in female mice (Brothers et al., Wu et al.). In these studies, DIO females were treated with KDT501, PIO or VEH beginning 8 weeks after change to high fat diet. Mice were assessed for estrous cycle stage for 15 consecutive days beginning 10 days after drug/VEH treatment. Vaginal cytology was assessed daily between 9 and 10 am for 15 consecutive days beginning the 10th days after drug treatment. Vaginal cells were collected via saline lavage and then fixed with 100% ethanol and stained with the DIFF Quick Stain Kit (IMEB Inc., San Marcos, Calif., USA). Stages were assessed based on vaginal cytology (Nelson et al. 1982): predominant cornified epithelium indicated the estrus stage, predominant nucleated cells indicated the proestrus stage, both cornified and leukocytes indicated the metestrus stage, and predominant leukocytes indicated the diestrus stage. The percentage of mice at each different cycle stage in each group was calculated."}, "[3]": {"experiment": "Weight gain on high fat diet in DIO female mice", "conditions": "female mice on 60% HFD; oral once a day; KDT501 100 mg/kg, PIO 30 mg/kg; compared to VEH", "excerpt": "To generate DIO mice, 7 week old female mice on a mixed strain background (129SvJ, C57B16, CD1) were placed and maintained on a high fat diet (HFD) for 8 weeks prior to study and throughout the course of study. The high fat diet consisted of 60% Kcal from fat with an energy density of 5.24 kcal/gm (D12492, Research Diets, Inc., New Brunswick, N.J., USA).\nWood chip bedding was maintained in these cages so that mice would not supplement their diet by eating the standard corncob bedding. Mice were weighed every week. The regular chow diet (Tekland Global 18% protein diet) was 24% Kcal from protein, 58% Kcal from carbohydrate, and 18% Kcal from fat with an energy density of 3.1 kcal/g (Harlan Laboratories, Indianapolis, Ind., USA). All procedures were performed with approval by the Johns Hopkins Animal Care and Use Committee under standard light and dark cycles.\nAt 80 days after introduction to high fat diet, the test compounds were administered orally to the mice once a day. […]\nFemale mice fed a high fat diet (60% calories from fat) gained approximately 4 grams of weight during the 8 week study period (FIG. 1). […] All data were analyzed with using Prism Software 5 GraphPad Software (La Jolla, CA) and are expressed as means ±SEM. Significance was determined via unpaired two- tailed Student t-test, one- or two-way ANOVA with the appropriate post-hoc tests. […]"}, "DIO female mice [4]": {"tested_on": "DIO female mice", "experiment": "IP-glucose tolerance test (IP-GTT)", "conditions": "one month after drug treatment, relative to VEH", "description": "(§2) To begin to assess the effects of drug treatment on glucose metabolism in female DIO mice, IP-glucose tolerance test (IP-GTT) was performed. One month after drug treatment, mice were tested for glucose tolerance by IP-GTT. The mice were fasted overnight for 16 hours, blood was drawn through the tail vein and baseline blood glucose was measured using a OneTouch Ultra glucometer. 20% dextrose was injected IP (2 g/kg body weight). Sample blood glucose was measured at 15, 30, 60, 90 and 120 minutes. One week after IP-GTT, the mice were tested for whole body insulin sensitivity by insulin tolerance test (ITT). Mice were fasted for seven hours, blood was drawn through the tail vein and baseline blood glucose was measured as above. 0.3 units/kg insulin was injected IP. Blood glucose of each mouse were measured at 15, 30, 60, 90 and 120 minutes. Area under the curve (AUC) was calculated for both the IP-GTT and the ITT."}, "DIO female mice [5]": {"tested_on": "DIO female mice", "experiment": "Liver lipid accumulation, H&E staining quantified with ImageJ", "description": "Liver tissues were collected and placed immediately in 10% formalin. 5 μm sections of tissue were stained with H&E by the Johns Hopkins Molecular and Comparative Pathobiology Phenotyping Core. Quantification of the area of fat in liver tissue was measured with NIH imageJ software and compared across groups."}, "DIO female mice [6]": {"tested_on": "DIO female mice", "experiment": "Insulin tolerance test (ITT), whole body insulin sensitivity", "description": "as §2"}, "DIO female mice [7]": {"tested_on": "DIO female mice", "experiment": "Serum pituitary gonadotropin (LH, FSH) levels, Luminex Milliplex mouse pituitary panel", "conditions": "KDT501 100 mg/kg, PIO 30 mg/kg oral once a day, compared to VEH", "description": "as §1"}, "[8]": {"conditions": "15 day period, KDT501 100 mg/kg, PIO 30 mg/kg"}}, "note": "“And” between values parts separate entries of the source, which are not always exact repeats. Identical values can stand only once. “Also recorded” adds a separate entry of the source.", "data": [{"smiles": "CC(C)CCC(=O)[C@@]1(O)C([O-])=C(C(=O)CC(C)C)C(=O)[C@@H]1CCC(C)C.[K+]", "note": "[KDT501, Potassium salt of (+)-KDT500]", "values": [{"measurement": "fasting serum IL-6 level", "setting": "DIO female mice [1]", "value": "not significantly different; also recorded: No significant differences"}, {"measurement": "fasting serum insulin level", "setting": "DIO female mice [1]", "value": "not significantly different; also recorded: No significant differences"}, {"measurement": "fasting serum leptin level", "setting": "DIO female mice [1]", "value": "not significantly different; also recorded: No significant differences"}, {"measurement": "percent of mice acyclic (did not complete even 1 complete estrous cycle)", "setting": "DIO female mice [2]; KDT501 100 mg/kg, PIO 30 mg/kg", "value": 7.1, "unit": "%"}, {"measurement": "percentage of mice that completed 3 complete estrous cycles", "setting": "DIO female mice [2]; [8]", "value": 20, "unit": "%"}, {"measurement": "percentage of mice that had (at least) two complete estrous cycles", "setting": "DIO female mice [2]; [8]", "value": 60, "unit": "%"}, {"measurement": "percentage of mice that had one complete estrous cycle", "setting": "DIO female mice [2]; [8]", "value": "Roughly an even percentage"}, {"measurement": "number of complete estrous cycles per mouse", "setting": "DIO female mice [2]; 15 days of analysis, compared to VEH", "value": "significantly more complete estrous cycles; also recorded: significant increase in number of cycles/mouse"}, {"measurement": "weight gain (Δ weight from week 0) over the 8 week study period", "setting": "[3]", "value": "no weight gain; also recorded: attenuated weight gain"}, {"measurement": "glucose tolerance (blood glucose after IP dextrose)", "setting": "DIO female mice [4]; 16 h fast, 2 g/kg dextrose IP", "value": "improved glucose tolerance"}, {"measurement": "glucose tolerance, IP-GTT area under the curve (AUC)", "setting": "DIO female mice [4]", "value": "significant improvement in glucose tolerance"}, {"measurement": "fat / lipid accumulation in liver, KDT501 versus PIO", "setting": "DIO female mice [5]; KDT501 100 mg/kg compared to PIO 30 mg/kg", "value": "significantly less lipid accumulation; also recorded: significantly less fat"}, {"measurement": "fat / lipid accumulation in liver", "setting": "DIO female mice [5]; KDT501 100 mg/kg, PIO 30 mg/kg, relative to VEH", "value": "significantly less lipid accumulation; also recorded: significant reduction in fat"}, {"measurement": "insulin sensitivity, ITT area under the curve (AUC)", "setting": "DIO female mice [6]; 0.3 units/kg insulin IP, relative to VEH", "value": "improved insulin sensitivity"}, {"measurement": "fasting glucose levels (7 hrs fasting)", "setting": "DIO female mice [6]; before insulin injection, compared to VEH controls", "value": "lower fasting glucose levels"}, {"measurement": "morning serum FSH level", "setting": "DIO female mice [7]", "value": "not significantly altered"}, {"measurement": "morning serum LH level", "setting": "DIO female mice [7]", "value": "not significantly altered"}, {"measurement": "ratio of LH/FSH", "setting": "DIO female mice [7]", "value": "no significant difference"}]}, {"smiles": "CCc1ccc(CCOc2ccc(CC3SC(=O)NC3=O)cc2)nc1", "note": "(stereo not drawn) [PIO, Pioglitazone, reference compound]", "values": [{"measurement": "percent of mice acyclic (did not complete even 1 complete estrous cycle)", "setting": "DIO female mice [2]; KDT501 100 mg/kg, PIO 30 mg/kg", "value": 20, "unit": "%"}, {"measurement": "percentage of mice that completed 3 complete estrous cycles", "setting": "DIO female mice [2]; [8]", "value": "21% and 28%"}, {"measurement": "percentage of mice that had (at least) two complete estrous cycles", "setting": "DIO female mice [2]; [8]", "value": "25-28%"}]}]}
